Patent US7572765B2, “Conformationally constrained parathyroid hormone (PTH) analogs” (The General Hospital Corporation, priority 2001, dated 2009)
Square brackets hold non-standard residues; d marks the D form. Ends that are not written are not given here. Peptide text beside a SMILES is read from it. hArg = N=C(N)NCCCC[C@H](N)C(=O)O; Nle = CCCC[C@H](N)C(=O)O; Aib = CC(C)(N)C(=O)O

What was measured:
human P1R [1] = target: T1, human P1R (Homo sapiens, UniProt Q03431); assay: Competition binding in HKRK-B28 cells; details: for binding of radiolabeled peptide to HKRK-B28 cells (in words): direct binding of the radioligand
T1 construct: expressed in transfected cells; host or cells: HKRK-B28 (porcine kidney LLC-PK1, stably transfected)
T1 sequence (Q03431 27-593): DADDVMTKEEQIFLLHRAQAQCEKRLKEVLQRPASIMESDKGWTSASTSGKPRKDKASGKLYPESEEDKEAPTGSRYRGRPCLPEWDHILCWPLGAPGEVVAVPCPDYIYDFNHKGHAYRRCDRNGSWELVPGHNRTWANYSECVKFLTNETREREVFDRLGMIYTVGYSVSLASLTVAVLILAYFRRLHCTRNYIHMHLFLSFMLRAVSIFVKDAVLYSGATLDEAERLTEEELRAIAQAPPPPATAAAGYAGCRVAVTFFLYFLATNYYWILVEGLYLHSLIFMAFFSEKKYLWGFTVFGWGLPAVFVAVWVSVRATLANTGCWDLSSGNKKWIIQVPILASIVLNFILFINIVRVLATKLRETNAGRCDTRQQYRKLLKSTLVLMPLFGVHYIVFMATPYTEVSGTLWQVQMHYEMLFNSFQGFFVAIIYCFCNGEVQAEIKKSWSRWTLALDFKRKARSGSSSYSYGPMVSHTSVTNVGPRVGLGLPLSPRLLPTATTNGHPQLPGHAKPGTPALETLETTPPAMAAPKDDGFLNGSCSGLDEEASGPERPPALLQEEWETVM
Experimental: (§1) Cell Culture. The cell line HKRK-B28 (Takasu, H., et al., J. Bone Miner. Res. 14:11-20 (1999)) was derived from the porcine kidney cell line, LLC-PK1 by stable transfection with plasmid DNA encoding the human P1R and expresses ˜280,000 receptors per cell. These cells, as well as COS-7 cells and SaOS-2-B10 cells, were cultured at […] in T-75 flasks ([…]) in Dulbecco's modified Eagle's medium (DMEM) supplemented with fetal bovine serum (10%), penicillin G (20 units/ml), streptomycin sulfate (20 μg/ml) and amphotericin B (0.05 μg/ml) in a humidified atmosphere containing 5% CO2. Stock solutions of EGTA/trypsin and antibiotics were from GIBCO; fetal bovine serum was from Hyclone Laboratories (Logan, Utah). COS-7 cells sub-cultured in 24-well plates were transfected with plasmid DNA (200 ng per well) encoding the wild-type human P1R or truncated human P1R deleted for residues (24-181) (Shimizu, M., et al., J. Biol. Chem. 275:21836-21843 (2000)) that was purified by cesium chloride/ethidium bromide density gradient centrifugation, and FuGENE 6 transfection reagent (Roche Indianapolis Ind.) according to the manufacturer's recommended procedure. All cells, in 24-well plates, were treated with fresh media and shifted to 33° C. for 12 to 24 h prior to assay.
Competition Binding. Binding reactions were performed with HKRK-B28 cells or in COS-7 cells in 24-well plates. The cells were rinsed with 0.5 mL of binding buffer, and then treated successively with 100 μL binding buffer, 100 μL of binding buffer containing various amounts of unlabeled competitor ligand, and 100 μL of binding buffer containing ca. 100,000 cpm of ^125I-[M]PTH(1-21) or ^125I-[Aib^1,3,M]PTH(1-21)} (ca. 26 fmol; final volume=300 μL). Incubations were 4 to 6 h at 4° C., at which time near equilibrium conditions were attained. Cells were then placed on ice, the binding medium was removed, and the monolayer was rinsed three times with 0.5 mL of cold binding buffer. The cells were subsequently lysed with 0.5 mL […] and counted for radioactivity. For each tracer and in each experiment, the non-specific binding was determined as the radioactivity that bound in the presence of the same unlabeled peptide at a concentration of 1 μM, and was ˜1% of total radioactivity added for each tracer. The maximum specific binding (B0) was the total radioactivity bound in the absence of competing ligand, corrected for nonspecific binding, and for each tracer, ranged from 8% to 20% of the total radioactivity added. Nonlinear regression was used to calculate binding IC50 values (see below). Scatchard transformations of homologous competition binding data derived from studies with 26 fmol of ^125I-[Aib^1,3,M]PTH(1-21) were employed for estimations of apparent equilibrium dissociation constant (kDapps) and total number of ligand binding sites (Bmax), assuming a single class of binding sites and equal affinities of the iodinated and non iodinated ligand.
(§2) Data Calculation. Calculations were performed using Microsoft® Excel. Nonlinear regression analyses of binding and cAMP dose-response data were performed using the four-parameter equation: yp=Min+[(Max−Min)/(1+(IC50/x)^slope)]. The Excel Solver function was utilized for parameter optimization, as described previously (Carter, P. H., et al., Endocrinology 140: 4972-4981 (1999); Bowen, W. P., and Jerman, J. C., Trends in Pharmacol. Sci. 16: 413-417 (1995)). Differences between paired data sets were statistically evaluated using a one-tailed Student's t-test, assuming unequal variances for the two sets.
The P1R-binding properties of these analogs were assayed in competition studies performed in […]. In previous studies, PTH(1-14) binding could not be detected using ^125I-PTH(1-34) and related N-terminally intact and relatively unmodified radioligands (Luck, M. D., et al., Molecular Endocrinology 13:670-680 (1999)). […]

human P1R [2] = target: T1, human P1R; assay: cAMP stimulation in HKRK-B28 cells; format: cell-based; details: for cAMP EMax(obs.): basal 4.0 ± 0.1 pmole/well not subtracted
Experimental: as §1
(§3) cAMP Stimulation. Stimulation of cells with peptide analogs was performed in 24-well plates. Cells were rinsed with 0.5 mL of binding buffer (50 mM Tris-HCI, […], 5 mM KCl, 2 mM CaCl2, 5% heat-inactivated horse serum, 0.5% fetal bovine serum, adjusted to pH 7.5 with HCl) and treated with 200 μL of cAMP assay buffer (Delbecco's modified Eagle's medium containing 2 mM 3-isobutyl-1-methylxanthine, 1 mg/mL bovine serum albumin, 35 mM Hepes-NaOH, pH 7.4) and 100 μL of binding buffer containing varying amounts of peptide analog (final volume=300 μL). The medium was removed after incubation for 30 to 60 minutes at room temperature, and the cells were frozen on dry ice, lysed with 0.5 mL 50 mM HCl, and refrozen ([…]). The cAMP content of the diluted lysate was determined by radioimmunoassay. The EC50 response values were calculated using nonlinear regression (see below).
as §2

[3] = target: T2, P1R-delNt, truncated human P1R deleted for residues (24-181) (Homo sapiens, UniProt Q03431); assay: cAMP stimulation in COS-7 cells expressing hP1R-delNt; format: cell-based; details: hP1R-delNT
T2 construct: expressed in transfected cells; host or cells: COS-7 (transient, FuGENE 6)
T2 sequence (Q03431 with tags, fused parts or gaps limits assumed): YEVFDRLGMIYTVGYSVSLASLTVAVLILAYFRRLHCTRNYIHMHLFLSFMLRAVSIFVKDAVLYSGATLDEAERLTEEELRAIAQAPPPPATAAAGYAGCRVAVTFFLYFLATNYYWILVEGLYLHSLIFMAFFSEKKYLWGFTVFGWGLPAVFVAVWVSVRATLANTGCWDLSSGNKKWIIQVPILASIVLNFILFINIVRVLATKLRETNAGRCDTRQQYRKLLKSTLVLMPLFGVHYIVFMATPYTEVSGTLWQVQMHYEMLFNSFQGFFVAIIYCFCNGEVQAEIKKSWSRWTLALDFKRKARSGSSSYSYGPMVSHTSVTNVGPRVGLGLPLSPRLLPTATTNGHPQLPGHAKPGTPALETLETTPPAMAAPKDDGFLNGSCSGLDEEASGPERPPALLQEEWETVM
Experimental: as §1, §3, §2
The possibility that the activity-enhancing effects of the Aib substitutions at positions 1 and 3 were mediated through the juxtamembrane (J) region of the receptor was investigated in COS-7 cells transiently transfected with P1R-delNt. P1R-delNt was a truncated P1R that lacked most of the amino-terminal extracellular domain.

[4] = target: T2, P1R-delNt, truncated human P1R deleted for residues (24-181); assay: Competition binding in COS-7 cells expressing hP1R-delNt; details: direct binding of the radioligand
[5] = HKRK-B28 cells, tracer 125I-[M]PTH(1-21)amide, 4 h at 4° C., N.B. = no binding detected at 10 μm peptide

Row | Compound | Binding IC50 (human P1R [1]; [5]) | EC50 (human P1R [2]) [µM] | cAMP EMax(obs.) (human P1R [2]) [pmole/well] | other results
1 | CC[C@H](C)[C@H](NC(=O)[C@H](CCC(=O)O)NC(=O)C(C)(C)NC(=O)[C@@H](NC(=O)C(C)(C)N)C(C)C)C(=O)N[C@@H](CCC(N)=O)C(=O)N[C@@H](CC(C)C)C(=O)N[C@@H](CCSC)C(=O)N[C@@H](Cc1c[nH]cn1)C(N)=O [[Aib^1,3]PTH(1-9)] (H-[Aib]V[Aib]EIQLMH-NH2) | did not bind detachably | > 10 | 10 ± 1 | Binding IC50 (human P1R [1]; HKRK-B28 cells, tracer 125I-[M]PTH(1-21)amide, 4 h at 4° C., N.B. = no binding detected at 10 μm peptide, listed as [Aib^1,3]PTH (1-9)): N.B.; stimulation of cAMP accumulation (in words) (human P1R [2]): Little or no stimulation of cAMP accumulation
2 | CC[C@H](C)[C@H](NC(=O)[C@H](CCC(=O)O)NC(=O)[C@H](C)NC(=O)[C@@H](NC(=O)[C@H](C)N)C(C)C)C(=O)N[C@@H](CCC(N)=O)C(=O)N[C@@H](CC(C)C)C(=O)N[C@@H](CCSC)C(=O)N[C@@H](Cc1c[nH]cn1)C(=O)N[C@@H](CCC(N)=O)C(=O)NC(C)(C)C(=O)N[C@@H](C)C(=O)N[C@@H](CCCCN)C(=O)N[C@@H](Cc1c[nH]c2ccccc12)C(N)=O [Aib-11] (H-AVAEIQLMHQ[Aib]AKW-NH2) | N.B. | 67 | 96 ± 18 | 
3 | ^125I-[Ala^3,12Nle^8Gln^10,Har^11,Trp^14,Tyr^15]PTH(1-15)amide (AVAEIQL[Nle]HQ[hArg]AKWY-NH2; also: 125I-labeled, place not given here) [reference compound] |  |  |  | binding of radiolabeled peptide to HKRK-B28 cells (in words) (human P1R [1]): did not bind detectably
4 | CSCC[C@H](NC(=O)[C@H](CC(C)C)NC(=O)[C@H](CCC(N)=O)NC(=O)C(C)(C)NC(=O)[C@H](CCC(=O)O)NC(=O)[C@H](C)NC(=O)[C@@H](NC(=O)[C@H](C)N)C(C)C)C(=O)N[C@@H](Cc1c[nH]cn1)C(=O)N[C@@H](CCC(N)=O)C(=O)N[C@@H](CCCCNC(=N)N)C(=O)N[C@@H](C)C(=O)N[C@@H](CCCCN)C(=O)N[C@@H](Cc1c[nH]c2ccccc12)C(N)=O [Aib-5] (H-AVAE[Aib]QLMHQ[hArg]AKW-NH2) | N.B. | 66 | 169 ± 18 | 
5 | CC[C@H](C)[C@H](NC(=O)[C@H](CCC(=O)O)NC(=O)[C@H](C)NC(=O)[C@@H](NC(=O)[C@H](C)N)C(C)C)C(=O)N[C@@H](CCC(N)=O)C(=O)N[C@@H](CC(C)C)C(=O)N[C@@H](CCSC)C(=O)NC(C)(C)C(=O)N[C@@H](CCC(N)=O)C(=O)N[C@@H](CCCCNC(=N)N)C(=O)N[C@@H](C)C(=O)N[C@@H](CCCCN)C(=O)N[C@@H](Cc1c[nH]c2ccccc12)C(N)=O [Aib-9] (H-AVAEIQLM[Aib]Q[hArg]AKW-NH2) | N.B. |  | 51 ± 8 | 
6 | ^125I-[M]PTH(1-21): radioiodinated [M]PTH(1-21) tracer radioligand (AVAEIQL[Nle]HQ[hArg]AKWLASVRRY-NH2; also: 125I radiolabel, position not given here) [reference compound] |  |  |  | binding of radioligand to P1R-delNt (in words) [4]: did not bind detectably; binding of radiolabeled peptide to HKRK-B28 cells (in words) (human P1R [1]): bound adequately

Second part, led by results:

Row | Binding IC50 (human P1R [1]; [5]) | EC50 (human P1R [2]) [µM] | cAMP EMax(obs.) (human P1R [2]) [pmole/well] | Compound | other results
7 |  | 0.1 ± 0.02 |  | CC[C@H](C)[C@H](NC(=O)[C@H](CCC(=O)O)NC(=O)[C@H](C)NC(=O)[C@@H](NC(=O)[C@H](C)N)C(C)C)C(=O)N[C@@H](CCC(N)=O)C(=O)N[C@@H](CC(C)C)C(=O)N[C@@H](CCSC)C(=O)N[C@@H](Cc1cnc[nH]1)C(=O)N[C@@H](CCC(N)=O)C(=O)N[C@@H](CCCCN=C(N)N)C(=O)N[C@@H](C)C(=O)N[C@@H](CCCCN)C(=O)N[C@@H](Cc1c[nH]c2ccccc12)C(N)=O [[M]PTH(1-14), [Ala^3,12,Gln^10,Har^11,Trp^14]PTH(1-14)amide, reference compound] (H-AVAEIQLMHQ[hArg]AKW-NH2) | IC50 (human P1R [1]; [5]): 1.3e-05 M; EC50 [3]: 0.04 ± 0.002 µM
8 | N.B. |  | 34 ± 7 | CC[C@H](C)[C@H](NC(=O)[C@H](CCC(=O)O)NC(=O)[C@H](C)NC(=O)[C@@H](NC(=O)[C@H](C)N)C(C)C)C(=O)N[C@@H](CCC(N)=O)C(=O)N[C@@H](CC(C)C)C(=O)NC(C)(C)C(=O)N[C@@H](Cc1c[nH]cn1)C(=O)N[C@@H](CCC(N)=O)C(=O)N[C@@H](CCCCNC(=N)N)C(=O)N[C@@H](C)C(=O)N[C@@H](CCCCN)C(=O)N[C@@H](Cc1c[nH]c2ccccc12)C(N)=O [Aib-8] (H-AVAEIQL[Aib]HQ[hArg]AKW-NH2) | 
